Measured values as given in ChEMBL document CHEMBL1201862, “PubChem BioAssay data set” (2004).
The source made the active and inactive calls.

What was measured:
[1] = IGROV1 cell killing – plate reader, dry powder samples, PAX8 inhibitor project, dose response (AID 743043); format: functional, cell-based; conditions: IGROV-1
[2] = general mammalian cell viability loss – activator set, cherry-pick, cytotoxicity control for miR-122 modulator project, dose response (AID 720690); format: functional, cell-based;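 note: HEK293T human cells scored for general mammalian cytotoxicity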
[3] = general mammalian cell viability loss – inhibitor set, cherry-pick, set 2, cytotoxicity control for miR-122 modulator project, dose response (AID 720697); format: functional, cell-based
[4] = OVCAR-3 cell viability loss – plate reader, dry powder samples, PAX8 inhibitor project, dose response (AID 743044); format: functional, cell-based
[5] = OVCAR8 cell viability loss – plate reader, dry powder samples, PAX8 project, dose response (AID 743197); format: functional, cell-based; conditions: OVCAR-8
[6] = activation of miR-122 Renilla sensor silencing – cell-based, Huh7 psiCHECK-miR122, Renilla luciferase, cherry-picked, dose response (AID 651956); format: functional;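 note: huh7 hepatoma cells stably carrying a psiCHECK-2 miR-122 sensor plasmid; renilla luciferase signal reporting endogenous miR-122 activity after 48 h compound exposure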
[7] = biological target: T1, Protein RecA (Mycobacterium tuberculosis, UniProt P9WHJ3); experiment: Fluorescence Cell-Free Homogeneous Dose Retest to Identify Inhibitors of RecA-Intein Splicing Activity. [Related pubchem assays (depositor defined):AID2097, AID2223, AID489010, AID492950]; format: functional
T1 sequence (P9WHJ3 whole entry): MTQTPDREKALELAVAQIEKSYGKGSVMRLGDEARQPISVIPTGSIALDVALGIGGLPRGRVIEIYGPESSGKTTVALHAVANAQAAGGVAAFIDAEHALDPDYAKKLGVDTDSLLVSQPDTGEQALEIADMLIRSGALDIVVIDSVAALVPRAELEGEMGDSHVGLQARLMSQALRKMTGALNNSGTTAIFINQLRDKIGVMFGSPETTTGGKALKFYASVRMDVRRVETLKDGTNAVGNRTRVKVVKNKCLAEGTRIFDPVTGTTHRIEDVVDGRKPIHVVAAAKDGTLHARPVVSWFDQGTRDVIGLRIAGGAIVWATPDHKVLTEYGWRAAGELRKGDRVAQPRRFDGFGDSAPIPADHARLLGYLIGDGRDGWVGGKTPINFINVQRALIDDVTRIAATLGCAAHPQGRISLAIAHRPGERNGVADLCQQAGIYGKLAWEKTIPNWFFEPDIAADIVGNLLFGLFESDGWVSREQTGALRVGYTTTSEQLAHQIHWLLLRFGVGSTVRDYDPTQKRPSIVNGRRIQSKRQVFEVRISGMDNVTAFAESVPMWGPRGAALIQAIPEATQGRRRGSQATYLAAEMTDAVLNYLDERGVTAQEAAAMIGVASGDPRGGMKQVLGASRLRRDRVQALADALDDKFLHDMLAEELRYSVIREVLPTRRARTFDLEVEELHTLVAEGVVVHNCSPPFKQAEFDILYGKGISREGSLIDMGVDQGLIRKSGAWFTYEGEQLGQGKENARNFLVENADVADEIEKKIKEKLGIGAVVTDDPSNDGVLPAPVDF

[8] = biological target: Galanin receptor type 3 (Homo sapiens, UniProt O60755); experiment: Fluorescence-based cell-based primary high throughput dose response assay to identify antagonists of the Galanin Receptor 3 (GalR3).; format: functional
Galanin receptor type 3, sequence (O60755 whole entry): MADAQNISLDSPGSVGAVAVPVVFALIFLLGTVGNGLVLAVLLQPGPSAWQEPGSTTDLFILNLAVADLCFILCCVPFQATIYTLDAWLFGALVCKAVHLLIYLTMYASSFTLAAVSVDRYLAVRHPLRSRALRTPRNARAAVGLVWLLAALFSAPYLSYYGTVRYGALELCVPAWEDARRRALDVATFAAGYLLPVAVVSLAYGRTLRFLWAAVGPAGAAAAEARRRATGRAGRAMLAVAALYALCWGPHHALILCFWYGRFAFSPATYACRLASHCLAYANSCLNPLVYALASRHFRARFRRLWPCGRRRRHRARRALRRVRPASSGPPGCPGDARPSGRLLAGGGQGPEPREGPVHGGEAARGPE

[9] = cells; format: functional, cell-based; conditions: HEK-CNG
[10] = biological target: T2, Replicative DNA helicase DnaB (Mycobacterium tuberculosis, UniProt P9WMR3); experiment: DnaB intein splicing inhibitors, dose response, biochemical, cell-free fluorescence (AID 449749); format: functional
T2 sequence (P9WMR3 whole entry): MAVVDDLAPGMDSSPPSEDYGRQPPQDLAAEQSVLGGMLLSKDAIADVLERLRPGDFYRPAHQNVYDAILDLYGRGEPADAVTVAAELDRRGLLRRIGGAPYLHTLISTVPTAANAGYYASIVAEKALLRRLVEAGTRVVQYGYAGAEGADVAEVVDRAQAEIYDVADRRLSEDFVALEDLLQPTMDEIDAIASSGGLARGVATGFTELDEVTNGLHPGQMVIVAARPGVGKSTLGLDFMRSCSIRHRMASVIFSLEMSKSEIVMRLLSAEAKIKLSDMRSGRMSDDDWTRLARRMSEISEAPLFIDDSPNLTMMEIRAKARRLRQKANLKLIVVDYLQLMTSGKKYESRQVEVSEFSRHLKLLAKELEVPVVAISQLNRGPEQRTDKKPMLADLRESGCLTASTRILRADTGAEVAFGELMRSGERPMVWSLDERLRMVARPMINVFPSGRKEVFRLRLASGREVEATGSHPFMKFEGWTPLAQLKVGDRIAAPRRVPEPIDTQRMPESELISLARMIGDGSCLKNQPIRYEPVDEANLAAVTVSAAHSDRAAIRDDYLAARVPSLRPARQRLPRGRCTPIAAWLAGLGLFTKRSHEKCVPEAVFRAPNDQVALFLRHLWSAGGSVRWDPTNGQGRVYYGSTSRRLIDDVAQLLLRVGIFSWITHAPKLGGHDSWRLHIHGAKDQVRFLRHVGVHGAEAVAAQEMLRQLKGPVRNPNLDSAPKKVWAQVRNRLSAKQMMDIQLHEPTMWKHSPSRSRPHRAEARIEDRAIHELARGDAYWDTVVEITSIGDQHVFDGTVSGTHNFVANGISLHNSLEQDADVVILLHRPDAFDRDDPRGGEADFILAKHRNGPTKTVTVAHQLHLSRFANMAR

[11] = cells
[12] = biological target: Major prion protein (Homo sapiens, UniProt P04156); format: functional, cell-based
[13] = biological target: Potassium channel subfamily K member 9 (Homo sapiens, UniProt Q9NPC2); experiment: KCNK9 flux blockade, concentration-response – cell-based, FluxOR thallium flux, selectivity assay for TASK1 inhibitor project, SAR follow-up (AID 652211); format: functional;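 note: potency is for inhibitors of the channel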
Potassium channel subfamily K member 9, sequence (Q9NPC2 whole entry): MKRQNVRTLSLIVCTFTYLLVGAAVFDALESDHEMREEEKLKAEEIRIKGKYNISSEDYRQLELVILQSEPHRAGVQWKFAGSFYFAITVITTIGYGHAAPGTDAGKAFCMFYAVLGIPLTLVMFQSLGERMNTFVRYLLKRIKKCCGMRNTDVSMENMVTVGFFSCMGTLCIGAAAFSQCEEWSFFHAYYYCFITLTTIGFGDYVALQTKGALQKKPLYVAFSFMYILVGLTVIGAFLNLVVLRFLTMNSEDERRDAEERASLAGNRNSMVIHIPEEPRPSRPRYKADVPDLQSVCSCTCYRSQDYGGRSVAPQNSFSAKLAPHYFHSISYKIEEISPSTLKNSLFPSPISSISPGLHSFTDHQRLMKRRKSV

C[C@H]1CCCCO[C@H](CN(C)Cc2ccccc2)[C@@H](C)CN([C@@H](C)CO)C(=O)c2cc(NC(=O)Nc3ccc(C(F)(F)F)cc3)ccc2O1
AC50 [1]: 23.4 µM (active)
AC50 [2]: 11.3 µM (active)
AC50 [3]: 8.18 µM (active)
AC50 [4]: 22.8 µM (active)
AC50 [5]: 21.4 µM (active)
AC50 [6]: 6.32 µM (active)

Cc1cc(C)c(C#N)c(SCc2n[nH]c3c2C(c2ccc(F)cc2)C(C#N)=C(N)O3)n1 (stereo not given)
EC50 [7]: 11.2 µM (active)
IC50 [8]: > 29.9 µM (inactive)
EC50 [9]: > 29.9 µM (inactive)
AC50 [10]: 6.74 µM (active)

Cc1nnc(S)c2nn(-c3ccccc3F)c(C)c12
IC50 [11]: > 138 µM (inactive)
IC50 [12]: 8.71 µM (active)

CCOC(=O)c1c(-c2ccccc2)oc2cc(Br)c(O)cc12
IC50 [11]: 60 µM (inactive)
IC50 [12]: 1.44 µM (active)

Cc1cccc(C(=O)Nc2cccc(NC(=O)c3ccccc3C(C)C)c2)c1
IC50 [13]: 2.39 µM (active)
